Experimental data published in patent US20240350643A1, “PROTEIN DEGRADATION AGENT” (SUZHOU KINTOR PHARMACEUTICALS, INC., priority 2021, published 2024).

Experiments:
[1] = biological target: T1, c-Myc protein (Homo sapiens, UniProt P01106); assay: Ability of compounds to degrade c-Myc protein in HL60 cells (ELISA); type: cell-based; settings: HL-60, 1 μM compound, 24 h, read-out: HL60 cells Protein degradation rate (1 μM)
T1 construct: endogenous in cells; host or cells: HL60 cells

[2] = test system: HL60 cells; assay: Anti-proliferation ability of compounds on HL60 cells (CTG); type: cell-based, human; settings: Homo sapiens, HL-60, 72 h, 3 days, CellTiter-Glo, read-out: HL60 cells Proliferation inhibitory activity
How it was run: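 Proliferation inhibition IC50 derived from CellTiter-Glo luminescence after 3-day compound treatment of HL60 cells plated at 20000 per well, against 0.1% DMSO controls.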

T1 sequence (P01106 whole entry): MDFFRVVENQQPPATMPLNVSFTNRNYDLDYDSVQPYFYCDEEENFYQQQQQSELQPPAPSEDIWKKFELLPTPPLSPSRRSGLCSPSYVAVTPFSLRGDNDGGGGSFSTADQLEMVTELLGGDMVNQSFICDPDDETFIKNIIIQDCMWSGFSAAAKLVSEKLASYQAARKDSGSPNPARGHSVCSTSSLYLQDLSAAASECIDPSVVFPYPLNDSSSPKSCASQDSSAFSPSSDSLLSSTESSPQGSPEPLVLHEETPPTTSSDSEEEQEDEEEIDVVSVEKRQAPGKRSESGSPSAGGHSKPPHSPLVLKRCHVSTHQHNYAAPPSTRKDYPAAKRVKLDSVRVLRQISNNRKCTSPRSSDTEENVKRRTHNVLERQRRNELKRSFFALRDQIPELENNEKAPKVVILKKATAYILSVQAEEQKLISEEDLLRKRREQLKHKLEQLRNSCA

Work on `CN(CCc1cccc2ccccc12)Cc1ccc(C2(NC(=O)c3ccc4c(c3)C(=O)N(C3CCC(=O)NC3=O)C4=O)CC2)cc1` (stereo not shown) [A139] yielded an inhibition at 1 µM [1] of 60 to 90% and an IC50 [2] of 22.5 ± 14.3 nM.
With `CN(CCn1c2ccccc2c2cccnc21)Cc1ccc(C2(NC(=O)c3ccc4c(c3)C(=O)N(C3CCC(=O)NC3=O)C4=O)CC2)cc1` (stereo not shown) [A140] the inhibition at 1 µM [1] was 60 to 90% and the IC50 [2] was 11 ± 1.7 nM.
Work on `O=C1CCC(N2C(=O)c3ccc(C(=O)NCc4ccc(C5(NC(=O)Cc6cccc7ccccc67)CC5)cc4)cc3C2=O)C(=O)N1` (stereo not shown) [A141] yielded an inhibition at 1 µM [1] of 60 to 90% and an IC50 [2] of 6.5 ± 0.3 nM.
Work on `O=C1CCC(N2C(=O)c3ccc(C(=O)NCc4ccc(C5(NC(=O)Cn6c7ccccc7c7cccnc76)CC5)cc4)cc3C2=O)C(=O)N1` (stereo not shown) [A142] yielded an inhibition at 1 µM [1] of 60 to 90% and an IC50 [2] of 6.1 ± 0.9 nM.
`CN(CCc1cccc2ccccc12)C1(c2ccc(CNC(=O)c3ccc4c(c3)C(=O)N(C3CCC(=O)NC3=O)C4=O)cc2)CC1` (stereo not shown) [A143] showed an inhibition at 1 µM [1] of 60 to 90% and an IC50 [2] of 22.9 ± 3 nM.
In the case of `CN(CCn1c2ccccc2c2cccnc21)C1(c2ccc(CNC(=O)c3ccc4c(c3)C(=O)N(C3CCC(=O)NC3=O)C4=O)cc2)CC1` (stereo not shown) [A144], the inhibition at 1 µM [1] is reported as 60 to 90% and the IC50 [2] is reported as 18.4 ± 7.4 nM.
Molecule `CC(C)(NC(=O)c1ccc2c(c1)C(=O)N(C1CCC(=O)NC1=O)C2=O)c1ccc(CNC(=O)Cc2cccc3ccccc23)cc1` (stereo not shown) [A145] has an inhibition at 1 µM [1] of 60 to 90% and an IC50 [2] of 117.7 ± 1.1 nM.
`CC(C)(NC(=O)c1ccc2c(c1)C(=O)N(C1CCC(=O)NC1=O)C2=O)c1ccc(CNC(=O)Cn2c3ccccc3c3cccnc32)cc1` (stereo not shown) [A146] gave an inhibition at 1 µM [1] of 60 to 90% and an IC50 [2] of 14.7 ± 4 nM.
Work on `CN(CCc1cccc2ccccc12)Cc1ccc(C(C)(C)NC(=O)c2ccc3c(c2)C(=O)N(C2CCC(=O)NC2=O)C3=O)cc1` (stereo not shown) [A147] yielded an inhibition at 1 µM [1] of 60 to 90% and an IC50 [2] of 16.7 ± 9.5 nM.
In the case of `CN(CCn1c2ccccc2c2cccnc21)Cc1ccc(C(C)(C)NC(=O)c2ccc3c(c2)C(=O)N(C2CCC(=O)NC2=O)C3=O)cc1` (stereo not shown) [A148], the inhibition at 1 µM [1] is reported as 60 to 90% and the IC50 [2] is reported as 12 ± 8.1 nM.
Work on `CC(C)(NC(=O)Cc1cccc2ccccc12)c1ccc(CNC(=O)c2ccc3c(c2)C(=O)N(C2CCC(=O)NC2=O)C3=O)cc1` (stereo not shown) [A149] yielded an inhibition at 1 µM [1] of 60 to 90% and an IC50 [2] of 7.6 ± 3 nM.
For `CC(C)(NC(=O)Cn1c2ccccc2c2cccnc21)c1ccc(CNC(=O)c2ccc3c(c2)C(=O)N(C2CCC(=O)NC2=O)C3=O)cc1` (stereo not shown) [A150], the inhibition at 1 µM [1] was 60 to 90% and the IC50 [2] was 7.2 ± 1 nM.
With `CN(CCn1c2ccccc2c2cccnc21)C(C)(C)c1ccc(CNC(=O)c2ccc3c(c2)C(=O)N(C2CCC(=O)NC2=O)C3=O)cc1` (stereo not shown) [A151] the inhibition at 1 µM [1] was 60 to 90% and the IC50 [2] was 11.3 ± 4.7 nM.
`O=C(Cc1cccc2ccccc12)NCc1ccc(CNC(=O)c2ccc3c(c2)CN(C2CCC(=O)NC2=O)C3=O)cc1` (stereo not shown) [A152] showed an inhibition at 1 µM [1] of 60 to 90% and an IC50 [2] of 0.6 ± 0.3 nM.
`O=C(Cn1c2ccccc2c2cccnc21)NCc1ccc(CNC(=O)c2ccc3c(c2)CN(C2CCC(=O)NC2=O)C3=O)cc1` (stereo not shown) [A153] showed an inhibition at 1 µM [1] of 60 to 90% and an IC50 [2] of 0.5 ± 0.3 nM.
`O=C(Cc1c(F)ccc2ccccc12)NCc1ccc(CNC(=O)c2ccc3c(c2)CN(C2CCC(=O)NC2=O)C3=O)cc1` (stereo not shown) [A154] was tested, and the inhibition at 1 µM [1] was 60 to 90% and the IC50 [2] was 1.2 ± 0.1 nM.
Molecule `O=C(Cc1cccc2ccc(F)cc12)NCc1ccc(CNC(=O)c2ccc3c(c2)CN(C2CCC(=O)NC2=O)C3=O)cc1` (stereo not shown) [A155] has an inhibition at 1 µM [1] of 60 to 90% and an IC50 [2] of 3 ± 0.6 nM.
`CN(CCn1c2ccccc2c2cccnc21)Cc1ccc(CNC(=O)c2ccc3c(c2)CN(C2CCC(=O)NC2=O)C3=O)cc1` (stereo not shown) [A156] was tested, and the inhibition at 1 µM [1] was 60 to 90% and the IC50 [2] was < 3 nM.
`O=C(Cn1c2ccccc2c2cccnc21)NCc1ccc(CNC(=O)c2ccc3c(c2)CN(C2CCC(=O)NC2=O)C3=O)c(F)c1` (stereo not shown) [A157] gave an inhibition at 1 µM [1] of 60 to 90% and an IC50 [2] of 0.5 ± 0.1 nM.
With `O=C(Cc1nccc2ccccc12)NCc1ccc(CNC(=O)c2ccc3c(c2)CN(C2CCC(=O)NC2=O)C3=O)c(F)c1` (stereo not shown) [A158] the inhibition at 1 µM [1] was 30 to 60% and the IC50 [2] was 3.3 ± 0.3 nM.
